The melting point is the temperature of the solid-liquid transition.

The target in one data set is T1, serotonin 2 receptor (Rattus norvegicus, UniProt P14842).
T1 construct: To the receptor fraction of the cerebral cortex were added a test compound and 0.3 nM of [^3H] ketanserin; from tissue; host or cells: rat cerebral cortex membrane fraction
In words: Binding test on [3H] ketanserin, cerebral cortex receptor fraction. Also noted: species or system SD rats. Conditions: 0.3 nM [3H] ketanserin, 37° C. 15 min, read-out: 5HT2.

In the next data set the target is α1 adrenalin receptor. The data set is described as follows: Binding test on [3H] prazosin, cerebral cortex receptor fraction. Also noted: species or system SD rats. Conditions: rat cerebral cortex receptor fraction, about 0.2 nM [3H] prazosin, room temperature 60 min; read-out: α 1.
For the next data set, the target named is T2, serotonin 1A receptor (Rattus norvegicus, UniProt P19327).
T2 construct: To the receptor fraction of the hippocampus were added a test compound and 0.5 nM of [^3H]; 8-hydroxy-dipropylaminotetralin; from tissue; host or cells: rat hippocampus membrane fraction
T2 sequence (P19327 1-422): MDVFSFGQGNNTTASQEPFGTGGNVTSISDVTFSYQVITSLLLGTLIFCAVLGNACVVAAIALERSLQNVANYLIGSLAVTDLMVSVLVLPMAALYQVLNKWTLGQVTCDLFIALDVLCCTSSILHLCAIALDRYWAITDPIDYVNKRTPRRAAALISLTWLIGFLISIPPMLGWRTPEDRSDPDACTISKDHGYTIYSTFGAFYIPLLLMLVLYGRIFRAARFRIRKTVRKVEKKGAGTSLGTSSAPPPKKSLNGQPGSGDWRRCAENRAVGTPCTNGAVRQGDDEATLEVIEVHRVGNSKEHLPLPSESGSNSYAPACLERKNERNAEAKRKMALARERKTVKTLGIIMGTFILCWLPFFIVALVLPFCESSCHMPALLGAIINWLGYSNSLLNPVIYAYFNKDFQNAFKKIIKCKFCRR
The data set is described as follows: Binding test on [3H] 8-hydroxy-dipropylaminotetralin, hippocampus receptor fraction. The arrangement: species or system SD rats. To be noted: rat hippocampus receptor fraction, 0.5 nM [3H] 8-OH-DPAT, room temperature 30 min; read-out: 5HT1.

Molecules are shown by their SMILES. Counter-ions that a name gives are not always drawn. Some results are limits rather than exact numbers.

T1 sequence (P14842 whole entry): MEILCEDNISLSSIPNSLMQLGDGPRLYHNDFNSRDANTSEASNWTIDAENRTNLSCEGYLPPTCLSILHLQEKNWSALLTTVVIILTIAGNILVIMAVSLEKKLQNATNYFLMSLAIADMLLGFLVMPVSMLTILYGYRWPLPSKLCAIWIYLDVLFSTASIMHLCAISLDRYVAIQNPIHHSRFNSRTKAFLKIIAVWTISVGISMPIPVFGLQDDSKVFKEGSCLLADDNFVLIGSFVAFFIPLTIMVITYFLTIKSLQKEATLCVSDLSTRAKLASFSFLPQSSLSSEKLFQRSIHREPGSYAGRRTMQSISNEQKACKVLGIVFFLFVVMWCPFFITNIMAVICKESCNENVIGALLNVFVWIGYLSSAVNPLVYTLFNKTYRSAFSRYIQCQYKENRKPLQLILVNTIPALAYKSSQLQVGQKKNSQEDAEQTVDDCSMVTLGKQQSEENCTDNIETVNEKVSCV
Method for α1 adrenalin receptor: As radioisotope-labeled compounds, use was made of the following reagents (mfd. by NEN). • 3) [^3H] […] Prazosin.
Use was made of SD rats aged 6 to 8 weeks.
The rats were sacrificed by dcapitation to extirpate the cerebra.
Each mixture was homogenized by using a Teflon glass homogenizer and centrifuged as 1,000× g for 10 min. The supernatant thus obtained was further centrifuged at 20,000× g for 20 min. […] After centrifuging at 20,000× g for 20 min, the obtained precipitate was further suspended and centrifuged twice each in the same manner. […] This receptor fraction was stored at −80° C. until using.
IC50 was calculated by the probit method, while Ki was determined in accordance with the following formula: Ki=IC50(1+c/Kd) wherein c represents the concentration of the radioisotope-labeled compound, and Kd represents the dissociation constant of the radioisotope-labeled compound with respect to the receptor determined by Scatchard's analysis. (Binding test on [^3H] prazosin)
To the receptor fraction of the cerebral cortex were added a test compound and about 0.2 nM of [^3H] prazosin and the resultant mixture was incubated at room temperature for 60 min. Next, it was filtered through a glass filter with the use of a cell harvester. After washing the glass filter with 50 mM Tris hydrochloride (pH 7.4), the radioactivity of the receptor was measured with a liquid scintillation counter. The binding detected in the presence of 10 μM of phentolamine was referred to as the nonspecific binding.

Molecule `CCN1CCN(c2nc(-c3ccc(O)cc3)cc3ccccc23)CC1` [Example 7, 1-(4-ethylpiperazin-1-yl)-3-(4-hydroxyphenyl)isoquinoline] came in with a melting point of 204 to 206 °C. For the same molecule, the Ki at serotonin 2 receptor amounted to 81.3 nM. In addition, the Ki on α1 adrenalin receptor is 521 nM. Further, the Ki at serotonin 1A receptor stood at 27.9 nM.

Take `CCN1CCN(c2nc(/C=C/c3ccccc3S(C)(=O)=O)cc3ccccc23)CC1.Cl` [Example 202, 3-[(E)-2-(2-Methylsulfonylphenyl)Ethenyl]-1-(4-Ethylpiperazin-1-Yl)Isoquinoline Hydrochloride]: the melting point lay in the range of 146 to 149 °C. The Ki at serotonin 2 receptor stood at 2.22 nM. In addition, the Ki at α1 adrenalin receptor is > 2000 nM. Also, at serotonin 1A receptor, the Ki stood at 14.6 nM.

Consider `CCN1CCN(c2nc(NCc3ccc(OC)cc3)cc3ccccc23)CC1` [Example 220, 1-(1-ethylpiperazin-4-yl)-3-(4-methoxybenzylamino)isoquinoline oxalate], for which the Ki was found to be 2.01 nM at serotonin 2 receptor, 3800 nM at α1 adrenalin receptor and 0.53 nM on serotonin 1A receptor.

With `CCN1CCN(c2nc(-c3ccc(OCCO)cc3)cc3ccsc23)CC1` [Example 259, 7-(4-ethylpiperazin-1-yl)-5-(4-hydroxyethoxyphenyl)thieno[2,3-c]pyridine Hydrochloride], the Ki at serotonin 2 receptor was 18.9 nM; at α1 adrenalin receptor it was 405 nM; on serotonin 1A receptor, 9.26 nM.

As to `CCN1CCN(c2nc(-c3ccc(C(C)O)cc3)cc3sccc23)CC1` (stereo not drawn) [Example 281, 4-(4-ethylpiperazin-1-yl)-6-[4-(1-hydroxyethyl)phenyl]thieno[3,2-c]pyridine oxalate], the Ki was determined as 16.9 nM on serotonin 2 receptor, 345 nM on α1 adrenalin receptor and 15 nM at serotonin 1A receptor.

For the molecule `CCN1CCN(c2nc(-c3ccc(CCC(C)O)cc3)cc3ccoc23)CC1` (stereo not drawn) [Example 300, 7-(1-ethylpiperazin-4-yl)-5-[4-(3-hydroxybutyl)phenyl]furo[2,3-c]pyridine dihydrochloride], the figures for the Ki at serotonin 2 receptor, on α1 adrenalin receptor and on serotonin 1A receptor were 9.06 nM, > 2000 nM and 0.49 nM, respectively.

As to `CCN1CCN(c2nc(-c3ccc(OCCCO)cc3)cc3ccccc23)CC1.Cl.Cl` [Example 331, 1-(4-ethylpiperazin-1-yl)-3-[4-(3-hydroxypropoxy)phenyl]isoquinoline dihydrochloride], the melting point was 112 to 113 °C (dec.). The Ki on serotonin 2 receptor came out at 5.9 nM. For the same molecule, the Ki at α1 adrenalin receptor was determined as 722 nM. The Ki on serotonin 1A receptor worked out at 23.6 nM.

With `CCN1CCN(c2nc(-c3ccc4c(c3)CC(CO)C4)cc3ccccc23)CC1` (stereo not drawn) [Example 393, 1-(4-Ethylpiperazin-1-yl)-3-(2-Hydroxymethylindan-5-yl)Isoquinoline Dihydrochloride], the Ki on serotonin 2 receptor was found to be 1.8 nM; at α1 adrenalin receptor, 242 nM; on serotonin 1A receptor, 13.1 nM.

With `CCN1CCN(c2nc(-c3ccc(CCC(C)(C)O)c(F)c3)cc3ccccc23)CC1` [Example 416, 1-(4-ethylpiperazin-1-yl)-3-[4-(3-hydroxy-3-methylbutyl)-3-fluorophenyl]isoquinoline], the Ki is 0.7 nM on serotonin 2 receptor, 174 nM at α1 adrenalin receptor and 31.2 nM on serotonin 1A receptor.

The values above are taken from US6875761B2 (Eisai Co., Ltd., priority 1997, dated 2005).
